Target: T1, human adenosine A2A receptor (Homo sapiens, UniProt P29274)
T1 construct: expressed in transfected cells; host or cells: CHO cells, semliki forest virus expression system; membrane preparation
Assay: Human adenosine A2A receptor [3H]-SCH-58261 binding assay
Conditions: human A2a receptor, membranes of CHO cells, [3H]-SCH-58261; read-out: pKi (affinity to the human A2a receptor) (converted)
Procedure: The gene encoding human adenosine A2A receptor was recombinantly introduced and expressed in chinese hamster ovary (CHO) cells using the semliki forest virus expression system. Cells were harvested, washed twice by centrifugation, homogenised and again washed by centrifugation. The final washed membrane pellet was suspended in a Tris (50 mM) buffer containing 120 mM NaCl, 5 mM KCl, 2 mM CaCl2 and 10 mM MgCl2 (pH 7.4) (buffer A). The [^3H]-SCH-58261 (Dionisotti et al., 1997, Br. J. Pharmacol. 121, 353; 1 nM) binding assay was carried out in 96-well plates in the presence of 2.5 μg of membrane protein, 0.5 mg of Ysi-poly-1-lysine SPA beads and 0.1 U adenosine deaminase in a final volume of 200 μl of buffer A. Non-specific binding was defined using xanthine amine congener (XAC; […]). Compounds were tested at 10 concentrations from 10 μM-0.3 nM. All assays were conducted in duplicate and repeated at least two times. Assay plates were incubated for 1 hour at room temperature before centrifugation and then bound ligand determined using a Packard Topcount scintillation counter. IC50 values were calculated using a non-linear curve fitting program and Ki values calculated using the Cheng-Prussoff equation.

T1 sequence (P29274 whole entry): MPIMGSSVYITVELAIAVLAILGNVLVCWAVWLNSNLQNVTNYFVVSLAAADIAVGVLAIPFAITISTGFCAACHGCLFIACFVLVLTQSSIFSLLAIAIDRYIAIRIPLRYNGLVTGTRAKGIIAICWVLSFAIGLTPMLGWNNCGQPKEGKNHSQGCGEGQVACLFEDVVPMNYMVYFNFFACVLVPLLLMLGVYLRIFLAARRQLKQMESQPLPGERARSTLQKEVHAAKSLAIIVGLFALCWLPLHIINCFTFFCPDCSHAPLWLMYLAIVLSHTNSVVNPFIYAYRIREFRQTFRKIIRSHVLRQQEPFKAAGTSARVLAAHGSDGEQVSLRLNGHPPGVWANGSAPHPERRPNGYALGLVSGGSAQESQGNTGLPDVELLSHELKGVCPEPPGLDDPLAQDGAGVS

Compound	Ki [nM]
N#Cc1c(SCCc2ccccn2)nc(N)nc1-c1cccs1 [Example 370]	8.91
Nc1nc(OCCCc2ccccc2)c(Cl)c(-c2ccco2)n1 [Example 321, 5-Chloro-4-furan-2-yl-6-(3-phenyl-propoxy)-pyrimidin-2-yl-amine]	2.82
Cc1cccnc1CNc1cc(N)nc(-c2ccco2)c1C#N [Example 376, 6-Amino-2-furan-2-yl-4-[(3-methyl-pyridin-2-yl-methyl)-amino]-nicotinonitrile]	4.57
C=Cc1ccc(CNc2nc(N)nc(-c3ccco3)c2C#N)cc1 [Example 374, 2-Amino-4-furan-2-yl-6-(4-vinyl-benzylamino)-pyrimidine-5-carbonitrile]	9.33
N#CCc1ccc(-c2nc(N)nc(SCCc3ccccn3)c2C#N)o1 [Example 524, 2-Amino-4-(5-cyanomethyl-fran-2-yl)-6-(2-pyridin-2:yl-ethylsulfanyl)-pyrimidine-5-carbonitrile]	5.75
Nc1nc(SCCc2ccccn2)c(Cl)c(-c2ccco2)n1 [Example 354, 5-Chloro-4-furan-2-yl-6-(2-pyridin-2-yl-ethylsulfanyl)-pyrimidin-2-yl-amine]	4.9
CSc1nc(N)nc(-c2ccc3c(c2)OCCO3)c1C#N [Example 23, 2-Amino-4-(2,3-dihydro-benzo[1,4]dioxin-6-yl)-6-methylsulfanyl-pyrimidine-5-carbonitrile]	9.12
Nc1nc(OCc2ccccc2)c([N+](=O)[O-])c(-c2ccco2)n1 [Example 286, 4-Benzyloxy-6-furan-2-yl-5-nitro-pyrimidin-2-yl-amine]	9.55
Nc1nc(SCCc2ccccn2)c(I)c(-c2ccco2)n1 [Example 352, 4-Furan-2-yl-5-iodo-6-(2-pyridin-2-yl-ethylsulfanyl)-pyrimidin-2-yl-amine]	5.13

More lines, now with the values ahead:

Ki [nM]	Compound
2.95	Cc1cccc(COc2nc(N)nc(-c3ccco3)c2C#N)n1 [Example 237, 2-Amino-4-furan-2-yl-6-(6-methyl-pyridin-2-ylmethoxy)-pyrimidine-5-carbonitrile]
2.82	COc1ccc(CCNc2nc(N)nc(-c3ccco3)c2C#N)cc1 [Example 144, 2-Amino-4-furan-2-yl-6-[2-(4-methoxy-phenyl)-ethylamino]-pyrimidine-5-carbonitrile]
2.29	N#Cc1c(NCc2cc3ccccc3cn2)nc(N)nc1-c1ccco1 [Example 367, 2-Amino-4-furan-2-yl-6-[(isoguinolin-3-yl-methyl)-amino]-pyrimidine-5-carbonitrile]
9.33	Nc1nc(OCc2ccccn2)c(Br)c(-c2ccco2)n1 [Example 168, 5-Bromo-4-furan-2-yl-6-(pyridin-2-ylmethoxy)-pyrimidin-2-yl-amine]
8.13	N#Cc1c(OCCNc2ccccc2)nc(N)nc1-c1ccco1 [Example 231, 2-Amino-4-furan-2-yl-6-(2-1-phenylamino-ethoxy)-pyrimidine-5-carbonitrile]
0.692	Cc1cnc(COc2nc(N)nc(-c3ccco3)c2C#N)c(C)c1 [Example 401, 2-Amino-4-(3,5-dimethyl-pyridin-2-ylmethoxy)-6-furan-2-yl-pyrimidine-5-carbonitrile]
2.14	Cc1ccc(-c2nc(N)nc(OCc3ccccn3)c2C#N)o1 [Example 247, 2-Amino-4-(5-methyl-furan-2-yl)-6-(pyridin-2-ylmethoxy)-pyrimidine-5-carbonitrile]
7.41	N#Cc1c(OCc2ccccn2)nc(N)nc1-c1ccccc1 [Example 105, 2-Amino-4-phenyl-6-(pyridin-2-ylmethoxy)-pyrimidine-5-carbonitrile]
8.91	N#Cc1c(NCc2ccc(N)cc2)nc(N)nc1-c1ccco1 [Example 305, 2-Amino-4-(4-amino-benzylamino)-6-furan-2-yl-pyrimidine-5-carbonitrile]
3.02	N#Cc1c(OCc2ccccn2)cc(N)nc1-c1ccco1 [Example 355, 6-Amino-2-furan-2-yl-4-(pyridin-2-yl-methoxy)-nicotinonitrile]

— patent publication US6586441B2, “Adenosine receptor ligands and their use in the treatment of disease” (Hoffman-La Roche Inc., priority 2000, dated 2003)
